A short description of test [1]: Inhibition of MraY in Bacillus subtilis membranes by continuous fluorescence assay. Type of test: cell membranes.
For test [2], the target named is T1, Phospho-N-acetylmuramoyl-pentapeptide-transferase (Escherichia coli, UniProt E2QF15).
T1 sequence (E2QF15 whole entry): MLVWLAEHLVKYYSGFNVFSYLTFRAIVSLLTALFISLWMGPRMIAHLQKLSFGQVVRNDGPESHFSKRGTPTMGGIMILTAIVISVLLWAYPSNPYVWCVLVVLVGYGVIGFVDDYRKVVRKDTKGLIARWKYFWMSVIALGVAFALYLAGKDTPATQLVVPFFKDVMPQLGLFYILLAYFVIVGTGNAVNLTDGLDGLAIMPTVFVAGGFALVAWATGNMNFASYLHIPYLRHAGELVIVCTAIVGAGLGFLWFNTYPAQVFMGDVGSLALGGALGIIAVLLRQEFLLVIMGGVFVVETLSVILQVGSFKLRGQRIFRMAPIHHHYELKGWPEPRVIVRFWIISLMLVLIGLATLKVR
The test is described as follows: Inhibition of recombinant MraY overexpressed in Escherichia coli membranes by continuous fluorescence assay. Type of test: cell membranes.

Test [3] concerns the target T2, Phospho-N-acetylmuramoyl-pentapeptide-transferase (Escherichia coli) (UniProt E2QF15).
T2 sequence (whole entry): T1 sequence (E2QF15 whole entry)
Nature of the test: Inhibition of recombinant MraY overexpressed in Escherichia coli membranes after 30 mins by radiochemical assay in presence of [14C-D-Ala]-UDPMurNAc-pentapeptide. Type of test: cell membranes.

The nature of test [4]: Inhibition of MraY in Micrococcus flavus membranes by continuous fluorescence assay. Type of test: cell membranes.
Test [5] in a line: Inhibition of MraY in Pseudomonas aeruginosa membranes by continuous fluorescence assay. Type of test: cell membranes.
The test system of test [6] is Escherichia coli. The test is described as follows: Inhibition of recombinant Escherichia coli MurG at 500 ug/ml after 30 mins by radiochemical assay in presence of [3H]-UDPGlcNAc.
A short description of test [7]: Inhibition of MraY in Staphylococcus aureus membranes by continuous fluorescence assay. The format is cell membranes.
For test [8], the target named is T2, Phospho-N-acetylmuramoyl-pentapeptide-transferase (Escherichia coli). The test is described as follows: Inhibition of recombinant MraY overexpressed in Escherichia coli membranes at 25 ug/ml by continuous fluorescence assay. The format is cell membranes.
Test [9] concerns Bacillus subtilis. Nature of the test: Antimicrobial activity against Bacillus subtilis W23 by liquid culture microtitre plate assay. Type of test: functional.
Test [10] relates to Micrococcus flavus. The test is described as follows: Inhibition of MraY in Micrococcus flavus membranes at 500 uM by continuous fluorescence assay. The format is cell membranes.
For test [11], the system named is Pseudomonas aeruginosa. Nature of the test: Inhibition of MraY in Pseudomonas aeruginosa membranes at 500 uM by continuous fluorescence assay. The format is cell membranes.
Test [12] concerns Pseudomonas putida. Nature of the test: Antimicrobial activity against Pseudomonas putida ATCC 33015 at 1.95 to 125 ug/ml by liquid culture microtitre plate assay. Type of test: functional, organism-based.
In test [13] the test system is Staphylococcus aureus. The test is described as follows: Inhibition of MraY in Staphylococcus aureus membranes at 500 uM by continuous fluorescence assay. Type of test: cell membranes.
Test [14] concerns Escherichia coli. The test is described as follows: Antimicrobial activity against Escherichia coli DH5[alpha] at 1.95 to 125 ug/ml by liquid culture microtitre plate assay. The format is functional, organism-based.
The test system of test [15] is Micrococcus flavus. The test is described as follows: Antimicrobial activity against Micrococcus flavus at 1.95 to 125 ug/ml by liquid culture microtitre plate assay. The format is functional, organism-based.
The target of test [16] is T2, Phospho-N-acetylmuramoyl-pentapeptide-transferase (Escherichia coli). The test is described as follows: Inhibition of recombinant MraY overexpressed in Escherichia coli membranes at 500 uM after 30 mins by radiochemical assay in presence of [14C-D-Ala]-UDPMurNAc-pentapeptide. Type of test: cell membranes.
The target is the same in test [17]. Nature of the test: Inhibition of recombinant MraY overexpressed in Escherichia coli membranes at 100 uM after 30 mins by radiochemical assay in presence of [14C-D-Ala]-UDPMurNAc-pentapeptide. Type of test: cell membranes.
Test [18] concerns Escherichia coli. The test is described as follows: Inhibition of recombinant Escherichia coli MurG at 50 ug/ml after 30 mins by radiochemical assay in presence of [3H]-UDPGlcNAc.

In brackets after ≈: the same amount, converted by molar mass. Activity calls are given as the source filed them. The rule behind the calls is not given here. A value given as a limit tells only on which side of the number the result lay.

The IC50 is the concentration that gives 50% inhibition. Usually inhibition stands for the relative decrease from the control value, in per cent. On to `O=C(O)c1c(Cl)c(Cl)c(Cl)c(Cl)c1-c1c2cc(Br)c(=O)c(Br)c-2oc2c(Br)c(O)c(Br)cc12`, for which the IC50 in [1] stood at 165 µM; in [2], 32 µM; in test [4], 195 µM; in [5] it was 128 µM; in test [7] it was 254 µM. Besides, in test [3], the inhibition entry is “Active”. The inhibition result in [6] is “inactive”.

For the compound `CC(=O)N[C@H]1[C@@H](O[C@@H]2O[C@H](CC(O)[C@H]3O[C@@H](n4ccc(=O)[nH]c4=O)[C@H](O)[C@@H]3O)[C@H](O)[C@H](O)[C@H]2NC(=O)/C=C/CC(C)C)O[C@H](CO)[C@@H](N)[C@@H]1O` (stereo partly drawn), in [8], the inhibition was above 95%.

As to `O=C(O)c1ccccc1-c1c2cc(Br)c(=O)cc-2oc2cc(O)c(Br)cc12`, in [3], the inhibition result was “inactive”.

In the case of `O=C(O)c1ccccc1-c1c2cc(Cl)c(=O)cc-2oc2cc(O)c(Cl)cc12`, the inhibition entry in test [3] was “inactive”.

By MIC is commonly meant the least concentration at which growth counts as inhibited. Low values mean inhibition by little substance, high ones a need for much substance. In turn, `COc1cc(C)cc2c(-c3c(O)cc(O)c4c3C[C@@H](C)N[C@@H]4C)cc(-c3cc(-c4c(O)cc(O)c5c4C[C@@H](C)N[C@@H]5C)c4cc(C)cc(OC)c4c3O)c(O)c12` [MICHELLAMINE A] displayed an MIC in test [9] of 16 µg/mL (≈ 21.1 µM). For the same compound, the IC50 came to 386 µM in [1] and 456 µM in test [2]. For the same compound, the inhibition in test [10] is 14%; in [11] it was 38%; in test [13], 0%; in [16], 60%; in test [17], 20%. Further, the outcome in test [12], in test [14] and in [15] was inactive. In addition, in test [6], the inhibition entry was “inactive”.

Take RAMOPLANIN: the inhibition in [18] is above 80%.

(Values after ChEMBL document CHEMBL3351389, “Identification of novel inhibitors of phospho-MurNAc-pentapeptide translocase MraY from library screening: Isoquinoline alkaloid michellamine B and xanthene dye phloxine B” (Bioorg Med Chem, 2014).)
